Tests used:
Assay in all cases: biochemical
Assay type in all cases: binding
[1] = target: T1, panel of 442 kinases (Homo sapiens, UniProt Q9H3Y6); conditions: kinase SRMS; for remaining activity at 1 µM: read-out: SRMS (% of control at 1 µM)
T1 construct: purchased Ambit Biosciences (scanMAXX KINOMEscan)

[2] = target: T2, panel of 442 kinases (Homo sapiens, UniProt O95747); conditions: kinase OSR1; for remaining activity at 1 µM: read-out: % of control at 1 µM
T2 construct: purchased Ambit Biosciences (scanMAXX KINOMEscan)

[3] = target: T3, panel of 442 kinases (Homo sapiens, UniProt P41743); conditions: kinase PRKCI; for remaining activity at 1 µM: read-out: PRKCI (% of control at 1 µM)
T3 construct: purchased Ambit Biosciences (scanMAXX KINOMEscan)
T3 sequence (P41743 1-596): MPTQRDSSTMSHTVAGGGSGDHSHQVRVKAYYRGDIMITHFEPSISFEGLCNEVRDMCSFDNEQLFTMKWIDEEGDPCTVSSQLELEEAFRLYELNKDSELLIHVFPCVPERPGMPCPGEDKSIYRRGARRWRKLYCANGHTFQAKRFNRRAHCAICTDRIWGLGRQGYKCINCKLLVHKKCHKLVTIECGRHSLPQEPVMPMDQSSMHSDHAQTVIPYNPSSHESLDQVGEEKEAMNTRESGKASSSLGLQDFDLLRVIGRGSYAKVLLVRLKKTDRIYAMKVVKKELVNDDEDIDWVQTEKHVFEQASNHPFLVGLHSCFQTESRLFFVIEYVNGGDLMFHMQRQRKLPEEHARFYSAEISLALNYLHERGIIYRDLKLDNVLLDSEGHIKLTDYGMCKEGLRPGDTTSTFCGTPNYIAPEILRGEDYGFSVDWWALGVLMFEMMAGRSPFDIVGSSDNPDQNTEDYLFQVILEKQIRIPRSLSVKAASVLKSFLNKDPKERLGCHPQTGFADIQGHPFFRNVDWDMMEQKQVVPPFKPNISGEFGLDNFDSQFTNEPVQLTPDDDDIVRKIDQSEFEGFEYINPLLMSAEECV

[4] = target: T4, panel of 442 kinases (Homo sapiens, UniProt P49841); conditions: kinase GSK3B; for remaining activity at 1 µM: read-out: % of control at 1 µM
T4 construct: purchased Ambit Biosciences (scanMAXX KINOMEscan)
T4 sequence (P49841 whole entry): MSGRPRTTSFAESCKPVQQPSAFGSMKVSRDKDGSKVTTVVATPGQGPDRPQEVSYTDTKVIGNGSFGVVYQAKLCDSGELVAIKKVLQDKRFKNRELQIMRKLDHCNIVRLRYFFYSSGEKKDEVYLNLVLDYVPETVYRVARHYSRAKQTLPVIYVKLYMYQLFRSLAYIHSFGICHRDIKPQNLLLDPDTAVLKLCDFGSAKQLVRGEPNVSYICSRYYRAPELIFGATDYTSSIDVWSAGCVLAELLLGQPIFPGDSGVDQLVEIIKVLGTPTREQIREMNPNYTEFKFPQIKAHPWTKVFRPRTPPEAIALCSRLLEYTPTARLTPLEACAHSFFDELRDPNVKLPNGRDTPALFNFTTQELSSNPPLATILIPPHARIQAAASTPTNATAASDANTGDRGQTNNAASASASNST

[5] = target: T5, panel of 442 kinases (Homo sapiens, UniProt P10721, T670I/V559D); conditions: kinase KIT(V559D,T670I); for remaining activity at 1 µM: read-out: % of control at 1 µM
T5 construct: purchased Ambit Biosciences (scanMAXX KINOMEscan)

[6] = target: T6, panel of 442 kinases (Homo sapiens, UniProt P36894); conditions: BMPR1A; for remaining activity at 1 µM: read-out: % of control at 1 µM
T6 construct: purchased Ambit Biosciences (scanMAXX KINOMEscan)
T6 sequence (P36894 24-532): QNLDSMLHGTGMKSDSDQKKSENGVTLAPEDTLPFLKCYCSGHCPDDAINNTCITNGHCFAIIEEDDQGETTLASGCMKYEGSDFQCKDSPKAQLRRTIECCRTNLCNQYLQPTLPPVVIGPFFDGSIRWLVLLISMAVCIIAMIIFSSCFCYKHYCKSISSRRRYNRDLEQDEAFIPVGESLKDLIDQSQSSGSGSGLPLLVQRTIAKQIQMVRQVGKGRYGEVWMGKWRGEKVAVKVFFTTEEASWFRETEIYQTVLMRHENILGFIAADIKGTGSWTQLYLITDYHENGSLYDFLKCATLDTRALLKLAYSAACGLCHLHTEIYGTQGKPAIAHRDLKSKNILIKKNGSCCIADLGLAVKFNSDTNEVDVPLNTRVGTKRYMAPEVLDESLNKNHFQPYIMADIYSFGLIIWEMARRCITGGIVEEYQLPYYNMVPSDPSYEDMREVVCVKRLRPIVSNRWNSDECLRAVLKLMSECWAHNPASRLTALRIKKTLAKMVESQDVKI

[7] = target: T7, panel of 442 kinases (Homo sapiens, UniProt Q9HCP0); conditions: CSNK1G1; for remaining activity at 1 µM: read-out: % of control at 1 µM
T7 construct: purchased Ambit Biosciences (scanMAXX KINOMEscan)
T7 sequence (Q9HCP0 whole entry): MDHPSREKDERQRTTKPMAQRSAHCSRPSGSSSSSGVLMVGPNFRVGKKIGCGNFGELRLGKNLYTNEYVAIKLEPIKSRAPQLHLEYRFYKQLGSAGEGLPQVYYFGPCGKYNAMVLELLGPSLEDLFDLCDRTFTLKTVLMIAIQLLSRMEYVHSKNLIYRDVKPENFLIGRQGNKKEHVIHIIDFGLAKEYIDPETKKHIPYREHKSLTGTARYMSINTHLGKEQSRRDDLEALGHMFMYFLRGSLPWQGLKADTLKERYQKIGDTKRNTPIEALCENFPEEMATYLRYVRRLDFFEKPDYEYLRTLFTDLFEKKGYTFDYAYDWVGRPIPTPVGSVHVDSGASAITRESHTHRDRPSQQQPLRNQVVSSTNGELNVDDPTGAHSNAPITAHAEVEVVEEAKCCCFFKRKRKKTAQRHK

[8] = target: T8, panel of 442 kinases (Homo sapiens, UniProt P00533); conditions: EGFR; for remaining activity at 1 µM: read-out: % of control at 1 µM
T8 construct: purchased Ambit Biosciences (scanMAXX KINOMEscan)
T8 sequence (P00533 25-1210): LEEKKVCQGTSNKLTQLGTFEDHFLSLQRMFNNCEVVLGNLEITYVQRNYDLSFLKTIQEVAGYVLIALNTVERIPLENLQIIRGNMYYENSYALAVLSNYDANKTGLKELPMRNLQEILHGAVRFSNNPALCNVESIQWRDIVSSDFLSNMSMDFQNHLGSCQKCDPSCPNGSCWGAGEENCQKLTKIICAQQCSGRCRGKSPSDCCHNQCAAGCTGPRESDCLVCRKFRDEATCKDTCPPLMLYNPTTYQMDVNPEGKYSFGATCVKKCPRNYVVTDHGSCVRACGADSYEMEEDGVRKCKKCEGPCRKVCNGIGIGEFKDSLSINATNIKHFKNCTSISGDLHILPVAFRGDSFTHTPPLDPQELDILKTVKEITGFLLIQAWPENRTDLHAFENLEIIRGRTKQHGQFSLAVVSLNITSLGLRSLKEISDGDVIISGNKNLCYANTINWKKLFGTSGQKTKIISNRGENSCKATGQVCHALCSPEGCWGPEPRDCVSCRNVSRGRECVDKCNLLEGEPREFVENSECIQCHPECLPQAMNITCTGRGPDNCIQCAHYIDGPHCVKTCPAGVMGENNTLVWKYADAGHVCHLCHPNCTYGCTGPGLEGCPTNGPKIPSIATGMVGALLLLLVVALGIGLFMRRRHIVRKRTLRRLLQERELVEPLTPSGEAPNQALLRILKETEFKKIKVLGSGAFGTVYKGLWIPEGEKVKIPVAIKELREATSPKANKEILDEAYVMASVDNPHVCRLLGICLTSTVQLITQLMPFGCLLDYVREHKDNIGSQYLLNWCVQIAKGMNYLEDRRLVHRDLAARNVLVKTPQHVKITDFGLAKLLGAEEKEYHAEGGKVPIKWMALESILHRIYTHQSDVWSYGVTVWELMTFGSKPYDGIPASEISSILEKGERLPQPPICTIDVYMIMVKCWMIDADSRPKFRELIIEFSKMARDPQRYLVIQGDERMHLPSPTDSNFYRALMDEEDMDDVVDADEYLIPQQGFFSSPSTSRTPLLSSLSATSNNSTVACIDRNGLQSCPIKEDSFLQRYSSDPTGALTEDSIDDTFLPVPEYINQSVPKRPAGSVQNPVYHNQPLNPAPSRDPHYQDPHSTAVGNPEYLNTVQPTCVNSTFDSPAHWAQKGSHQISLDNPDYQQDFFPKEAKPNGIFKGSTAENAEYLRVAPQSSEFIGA

[9] = target: T9, panel of 442 kinases (Homo sapiens, UniProt Q96RR4); conditions: CAMKK2; for remaining activity at 1 µM: read-out: % of control at 1 µM
T9 construct: purchased Ambit Biosciences (scanMAXX KINOMEscan)
T9 sequence (Q96RR4 whole entry): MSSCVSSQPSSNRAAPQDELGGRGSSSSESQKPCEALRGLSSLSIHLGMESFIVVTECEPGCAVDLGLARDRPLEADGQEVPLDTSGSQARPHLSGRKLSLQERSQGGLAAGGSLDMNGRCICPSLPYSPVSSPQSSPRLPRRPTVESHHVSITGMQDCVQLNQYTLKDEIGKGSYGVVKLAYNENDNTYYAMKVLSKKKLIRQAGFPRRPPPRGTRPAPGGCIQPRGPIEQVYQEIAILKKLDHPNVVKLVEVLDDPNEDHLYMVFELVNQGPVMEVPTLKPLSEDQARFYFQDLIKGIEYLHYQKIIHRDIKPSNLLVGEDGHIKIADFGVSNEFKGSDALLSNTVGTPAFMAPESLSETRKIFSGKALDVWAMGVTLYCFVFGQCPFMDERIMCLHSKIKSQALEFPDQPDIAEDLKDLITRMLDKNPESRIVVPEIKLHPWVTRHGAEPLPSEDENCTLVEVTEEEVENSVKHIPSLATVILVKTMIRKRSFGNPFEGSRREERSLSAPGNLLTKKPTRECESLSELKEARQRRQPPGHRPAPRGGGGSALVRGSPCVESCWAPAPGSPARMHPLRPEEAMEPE

[10] = target: T10, panel of 442 kinases (Homo sapiens, UniProt P19525); conditions: kinase PRKR; for remaining activity at 1 µM: read-out: PRKR (% of control at 1 µM)
T10 construct: purchased Ambit Biosciences (scanMAXX KINOMEscan)

[11] = target: T11, panel of 442 kinases (Homo sapiens, UniProt P14616); conditions: kinase INSRR; for remaining activity at 1 µM: read-out: % of control at 1 µM
T11 construct: purchased Ambit Biosciences (scanMAXX KINOMEscan)
T11 sequence (P14616 27-1297): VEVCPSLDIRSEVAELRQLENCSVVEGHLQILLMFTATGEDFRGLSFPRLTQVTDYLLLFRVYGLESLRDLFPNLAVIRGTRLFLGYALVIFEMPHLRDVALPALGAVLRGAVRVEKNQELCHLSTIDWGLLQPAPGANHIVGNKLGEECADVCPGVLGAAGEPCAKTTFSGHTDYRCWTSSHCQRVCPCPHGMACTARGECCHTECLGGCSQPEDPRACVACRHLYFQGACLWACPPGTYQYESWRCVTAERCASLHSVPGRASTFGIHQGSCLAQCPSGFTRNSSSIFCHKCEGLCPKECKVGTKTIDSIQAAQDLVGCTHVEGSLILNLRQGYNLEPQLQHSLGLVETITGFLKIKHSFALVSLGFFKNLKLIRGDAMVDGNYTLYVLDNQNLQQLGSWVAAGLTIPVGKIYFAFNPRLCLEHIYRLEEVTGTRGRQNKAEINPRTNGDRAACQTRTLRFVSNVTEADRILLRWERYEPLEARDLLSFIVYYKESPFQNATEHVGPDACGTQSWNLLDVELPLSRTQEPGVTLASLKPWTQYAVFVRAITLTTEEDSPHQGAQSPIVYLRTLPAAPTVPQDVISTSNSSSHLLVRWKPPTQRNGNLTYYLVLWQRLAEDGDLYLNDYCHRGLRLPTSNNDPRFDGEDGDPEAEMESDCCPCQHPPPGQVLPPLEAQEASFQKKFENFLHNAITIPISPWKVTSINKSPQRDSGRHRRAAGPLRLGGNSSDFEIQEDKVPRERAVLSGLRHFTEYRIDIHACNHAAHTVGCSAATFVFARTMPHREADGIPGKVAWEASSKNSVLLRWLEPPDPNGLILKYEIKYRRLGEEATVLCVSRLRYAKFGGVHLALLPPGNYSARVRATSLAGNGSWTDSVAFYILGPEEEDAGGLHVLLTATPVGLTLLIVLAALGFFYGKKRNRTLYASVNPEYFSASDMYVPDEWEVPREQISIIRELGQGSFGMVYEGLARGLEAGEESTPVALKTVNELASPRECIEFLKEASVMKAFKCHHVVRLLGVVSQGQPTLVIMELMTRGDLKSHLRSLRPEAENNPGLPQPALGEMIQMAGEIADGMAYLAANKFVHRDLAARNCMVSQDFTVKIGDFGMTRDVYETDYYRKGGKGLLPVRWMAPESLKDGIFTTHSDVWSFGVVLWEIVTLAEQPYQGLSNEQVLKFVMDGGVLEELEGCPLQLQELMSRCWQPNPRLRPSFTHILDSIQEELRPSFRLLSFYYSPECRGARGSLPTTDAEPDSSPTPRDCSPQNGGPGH

[12] = target: T12, panel of 442 kinases (Homo sapiens, UniProt Q9NRP7); conditions: kinase STK36; for remaining activity at 1 µM: read-out: STK36 (% of control at 1 µM)
T12 construct: purchased Ambit Biosciences (scanMAXX KINOMEscan)
T12 sequence (Q9NRP7 1-1315): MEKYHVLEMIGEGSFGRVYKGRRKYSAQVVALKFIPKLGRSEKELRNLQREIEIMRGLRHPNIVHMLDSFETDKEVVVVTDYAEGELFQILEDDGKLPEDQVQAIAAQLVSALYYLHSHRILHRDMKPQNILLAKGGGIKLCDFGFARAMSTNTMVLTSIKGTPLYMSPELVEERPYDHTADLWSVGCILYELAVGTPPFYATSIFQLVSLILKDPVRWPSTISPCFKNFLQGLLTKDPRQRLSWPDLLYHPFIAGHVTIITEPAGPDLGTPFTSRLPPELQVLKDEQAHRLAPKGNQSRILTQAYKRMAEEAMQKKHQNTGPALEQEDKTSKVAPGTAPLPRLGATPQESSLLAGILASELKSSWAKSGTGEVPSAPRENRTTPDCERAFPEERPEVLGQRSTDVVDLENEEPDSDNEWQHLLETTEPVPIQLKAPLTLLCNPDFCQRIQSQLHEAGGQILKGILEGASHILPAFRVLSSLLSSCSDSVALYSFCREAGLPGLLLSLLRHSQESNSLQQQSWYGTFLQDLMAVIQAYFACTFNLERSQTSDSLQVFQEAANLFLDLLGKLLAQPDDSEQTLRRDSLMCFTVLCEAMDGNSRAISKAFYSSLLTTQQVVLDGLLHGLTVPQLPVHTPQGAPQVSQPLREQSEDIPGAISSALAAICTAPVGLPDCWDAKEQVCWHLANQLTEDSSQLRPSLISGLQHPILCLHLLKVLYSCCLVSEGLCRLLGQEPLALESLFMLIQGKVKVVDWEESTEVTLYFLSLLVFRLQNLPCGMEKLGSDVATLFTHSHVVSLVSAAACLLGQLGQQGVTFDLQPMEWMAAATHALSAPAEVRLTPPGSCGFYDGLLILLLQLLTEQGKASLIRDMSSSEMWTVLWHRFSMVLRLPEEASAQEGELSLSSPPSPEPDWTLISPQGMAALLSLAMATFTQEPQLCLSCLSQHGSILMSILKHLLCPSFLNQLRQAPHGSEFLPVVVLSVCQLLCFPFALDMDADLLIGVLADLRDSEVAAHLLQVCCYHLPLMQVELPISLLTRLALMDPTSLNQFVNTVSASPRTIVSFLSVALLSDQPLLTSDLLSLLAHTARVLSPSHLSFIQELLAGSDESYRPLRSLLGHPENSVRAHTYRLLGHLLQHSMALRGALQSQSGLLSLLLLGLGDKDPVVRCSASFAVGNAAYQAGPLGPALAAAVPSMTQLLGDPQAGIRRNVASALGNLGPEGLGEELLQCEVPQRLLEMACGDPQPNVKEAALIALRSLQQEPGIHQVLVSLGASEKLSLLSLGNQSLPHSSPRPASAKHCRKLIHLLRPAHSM

[13] = 10 µM, read-out: % of control at 10 µM

T1 sequence (Q9H3Y6 whole entry): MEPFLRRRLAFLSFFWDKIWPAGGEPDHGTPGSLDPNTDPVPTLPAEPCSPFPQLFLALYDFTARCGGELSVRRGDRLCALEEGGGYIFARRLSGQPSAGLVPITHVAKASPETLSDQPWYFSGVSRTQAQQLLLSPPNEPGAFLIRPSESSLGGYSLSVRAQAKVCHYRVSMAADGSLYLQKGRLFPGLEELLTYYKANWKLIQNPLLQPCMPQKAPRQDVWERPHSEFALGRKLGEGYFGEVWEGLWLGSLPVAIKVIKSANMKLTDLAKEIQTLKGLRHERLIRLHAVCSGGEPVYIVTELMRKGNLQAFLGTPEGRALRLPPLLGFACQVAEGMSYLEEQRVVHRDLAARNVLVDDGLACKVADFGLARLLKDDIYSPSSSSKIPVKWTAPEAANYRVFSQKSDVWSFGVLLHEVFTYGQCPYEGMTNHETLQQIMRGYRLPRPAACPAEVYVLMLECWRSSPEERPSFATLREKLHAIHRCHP

Nc1cc(C(F)(F)F)c(-c2cc(N3CCOCC3)nc(N3CCOCC3)n2)cn1 [Buparlisib]
remaining activity at 1 µM [1]: 100% | remaining activity at 10 µM ([1]; 10 µM, read-out: SRMS (% of control at 10 µM)): 100% | remaining activity at 1 µM [2]: 97% | remaining activity at 10 µM [2, 13]: 100% | remaining activity at 1 µM [3]: 90% | remaining activity at 10 µM ([3]; 10 µM, read-out: PRKCI (% of control at 10 µM)): 100% | remaining activity at 1 µM [4]: 86% | remaining activity at 10 µM [4, 13]: 100% | remaining activity at 1 µM [5]: 90% | remaining activity at 10 µM [5, 13]: 70% | remaining activity at 1 µM [6]: 100% | remaining activity at 10 µM [6, 13]: 100% | remaining activity at 1 µM [7]: 95% | remaining activity at 10 µM [7, 13]: 95% | remaining activity at 1 µM [8]: 83% | remaining activity at 10 µM [8, 13]: 100% | remaining activity at 1 µM [9]: 100% | remaining activity at 10 µM [9, 13]: 100% | remaining activity at 1 µM [10]: 88% | remaining activity at 10 µM ([10]; 10 µM, read-out: PRKR (% of control at 10 µM)): 100% | remaining activity at 1 µM [11]: 100% | remaining activity at 10 µM [11, 13]: 100% | remaining activity at 1 µM [12]: 100% | remaining activity at 10 µM ([12]; 10 µM, read-out: STK36 (% of control at 10 µM)): 100%

Cn1c(=O)n(-c2ccc(C(C)(C)C#N)cc2)c2c3cc(-c4cnc5ccccc5c4)ccc3ncc21 [Dactolisib, 2-methyl-2-[4-(3-methyl-2-oxo-8-quinolin-3-yl-2,3-dihydroimidazo[4,5-c]quinolin-1-yl)-phenyl] propionitrile]
remaining activity at 1 µM [1]: 88% | remaining activity at 1 µM [2]: 91% | remaining activity at 1 µM [3]: 86% | remaining activity at 1 µM [4]: 100% | remaining activity at 1 µM [5]: 64% | remaining activity at 1 µM [6]: 98% | remaining activity at 1 µM [7]: 67% | remaining activity at 1 µM [8]: 80% | remaining activity at 1 µM [9]: 52% | remaining activity at 1 µM [10]: 95% | remaining activity at 1 µM [11]: 100% | remaining activity at 1 µM [12]: 89%

COc1ncc(-c2ccc3nccc(-c4ccnnc4)c3c2)cc1NS(=O)(=O)c1ccc(F)cc1F [Omipalisib]
remaining activity at 1 µM [1]: 90% | remaining activity at 1 µM [2]: 100% | remaining activity at 1 µM [3]: 100% | remaining activity at 1 µM [4]: 89% | remaining activity at 1 µM [5]: 100% | remaining activity at 1 µM [6]: 100% | remaining activity at 1 µM [7]: 100% | remaining activity at 1 µM [8]: 86% | remaining activity at 1 µM [9]: 71% | remaining activity at 1 µM [10]: 84% | remaining activity at 1 µM [11]: 93% | remaining activity at 1 µM [12]: 85%

FC(F)c1nc2ccccc2n1-c1nc(N2CCOCC2)nc(N2CCOCC2)n1 [ZSTK474, 2-(difluoromethyl)-1-[4,6-di(4-morpholinyl)-1,3,5-triazin-2-yl]-1H-benzimidazole]
remaining activity at 1 µM [1]: 80% | remaining activity at 1 µM [2]: 82% | remaining activity at 1 µM [3]: 100% | remaining activity at 1 µM [4]: 91% | remaining activity at 1 µM [5]: 98% | remaining activity at 1 µM [6]: 58% | remaining activity at 1 µM [7]: 81% | remaining activity at 1 µM [8]: 94% | remaining activity at 1 µM [9]: 100% | remaining activity at 1 µM [10]: 93% | remaining activity at 1 µM [11]: 88% | remaining activity at 1 µM [12]: 95%

Source: paper PMC5564600 (Oncotarget, 2017)
